Reference: patent publication US20260297092A1, “PYRAZOLOPYRIMIDINE DERIVATIVES AS INHIBITORS OF NLRP3” (Takeda Pharmaceutical Company Limited, priority 2023, published 2026)
pIC50: −log10 of the molar value.

Key:
[1] = test system: NLRP3 inflammasome (IL-1β production in THP-1 cells); test: IL-1β TR-FRET Assay (percentage of inhibition at 300 nM, 6 μM or 10 μM); format: cell-based, human; settings: Homo sapiens, LPS priming, ATP activation; for inhibition at 0.3 µM: THP-1, 300 nM, read-out: IL-1β inhibitory rate at 300 nM (%); for inhibition at 6 µM: THP-1, 6 μM, read-out: IL-1β inhibitory rate at 6 μM (%)
How it was run: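 Percent inhibition of IL-1β used DMSO wells as 0% and 3 μM MCC-950 wells as full inhibition, with supernatant read by HTRF. Beforehand, IFN-γ-differentiated (25 ng/mL, 24 h), LPS-primed (50 ng/mL, 24 h) THP-1 cells received compound 30 min before inflammasome activation by 20 mM ATP for 2 h.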

[2] = test system: TNF-α (NF-κB pathway, THP-1 cells); test: TNF-α Assay (IC50); format: cell-based, human; settings: Homo sapiens, 600 ng/mL LPS, 3 hours
How it was run: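 Supernatant TNF-α quantified by ELISA after 3 h stimulation with 600 ng/mL LPS at 37 °C, following 30 min compound preincubation. Cells: IFN-differentiated (25 ng/mL, 24 h) THP-1 macrophages, 40,000/well, serum-free. IC50 by sigmoidal fit of % inhibition, with TPCA-1 as 100% control.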

SMILES	inhibition at 0.3 µM [1]	pIC50 [2]	inhibition at 6 µM [1]
Cc1cc(C2CC2)cc(C)c1-n1cc2c(=O)[nH]c(-c3cn(C)nn3)nc2n1 [Example 229, 2-(4-cyclopropyl-2,6-dimethylphenyl)-6-(1-methyl-1H-1,2,3-triazol-4-yl)-2,5-dihydro-4H-pyrazolo[3,4-d]pyrimidin-4-one]	99%	< 4.52	
Cc1cc(C)c(-n2cc3c(=O)[nH]c(C(C)C)nc3n2)c(O)c1 [Example 10, 2-(2-hydroxy-4,6-dimethylphenyl)-6-(propan-2-yl)-2,5-dihydro-4H-pyrazolo[3,4-d]pyrimidin-4-one]	98%	< 4.52	
Cc1cc(-c2nc3nn(-c4c(C)cc(C5CC5)cc4C)cc3c(=O)[nH]2)no1 [Example 274, 2-(4-cyclopropyl-2,6-dimethylphenyl)-6-(5-methyl-1,2-oxazol-3-yl)-2,5-dihydro-4H-pyrazolo[3,4-d]pyrimidin-4-one]		< 4.52	102%
O=c1[nH]c(COC(F)F)nc2nn(-c3c(F)cc(C4CC4)cc3C(F)F)cc12 [Example 302, 2-[4-cyclopropyl-2-(difluoromethyl)-6-fluorophenyl]-6-[(difluoromethoxy)methyl]-2,5-dihydro-4H-pyrazolo[3,4-d]pyrimidin-4-one]		< 4.52	96%
COc1nc2nn(-c3c(F)cc(C4(F)CC4)cc3Br)cc2c(=O)[nH]1 [Example 204, 2-[2-bromo-6-fluoro-4-(1-fluorocyclopropyl)phenyl]-6-methoxy-2,5-dihydro-4H-pyrazolo[3,4-d]pyrimidin-4-one]	98%	< 4.52	
CCOc1nc2nn(-c3c(OCC)cc(C(F)(F)F)cc3C(F)F)cc2c(=O)[nH]1 [Example 95, 2-[2-(difluoromethyl)-6-ethoxy-4-(trifluoromethyl)phenyl]-6-ethoxy-2,5-dihydro-4H-pyrazolo[3,4-d]pyrimidin-4-one]	72%	< 4.52	
CCOc1nc2nn(-c3ccc(C)cc3OCC(F)F)cc2c(=O)[nH]1 [Example 98, 2-[2-(2,2-difluoroethoxy)-4-methylphenyl]-6-ethoxy-2,5-dihydro-4H-pyrazolo[3,4-d]pyrimidin-4-one]	44%	< 4.52	
COCCc1nc2nn(-c3c(F)cc(C4CC4)cc3C(F)F)cc2c(=O)[nH]1 [Example 300, 2-[4-cyclopropyl-2-(difluoromethyl)-6-fluorophenyl]-6-(2-methoxyethyl)-2,5-dihydro-4H-pyrazolo[3,4-d]pyrimidin-4-one]		< 4.52	99%
O=c1[nH]c(C2CC2)nc2nn(-c3c(F)cc(C4CC4)cc3C(F)F)cc12 [Example 173, 6-cyclopropyl-2-[4-cyclopropyl-2-(difluoromethyl)-6-fluorophenyl]-2,5-dihydro-4H-pyrazolo[3,4-d]pyrimidin-4-one]	108%	< 4.52	
CCOc1nc2nn(-c3ccc(C)cc3C)cc2c(=O)[nH]1 [Example 82, 2-(2,4-dimethylphenyl)-6-ethoxy-2,5-dihydro-4H-pyrazolo[3,4-d]pyrimidin-4-one]	98%	< 4.52	
CCOc1nc2nn(-c3c(C)cc(OC)cc3F)cc2c(=O)[nH]1 [Example 121, 6-ethoxy-2-(2-fluoro-4-methoxy-6-methylphenyl)-2,5-dihydro-4H-pyrazolo[3,4-d]pyrimidin-4-one]	97%	< 4.52	
COCc1nc2nn(-c3c(F)cc(C4CC4)cc3C(F)F)cc2c(=O)[nH]1 [Example 308, 2-[4-cyclopropyl-2-(difluoromethyl)-6-fluorophenyl]-6-(methoxymethyl)-2,5-dihydro-4H-pyrazolo[3,4-d]pyrimidin-4-one]		< 4.52	103%
CCOc1cc(F)c(-n2cc3c(=O)[nH]c(OCC)nc3n2)c(Br)c1 [Example 158, 2-(2-bromo-4-ethoxy-6-fluorophenyl)-6-ethoxy-2,5-dihydro-4H-pyrazolo [3,4-d]pyrimidin-4-one]	99%	< 4.52	
